Source: patent US20120088737A2, “NOVEL ACYL GUANIDINE DERIVATIVES” (AJINOMOTO CO., INC, priority 2009, published 2012)

How the values were obtained:
Format in all cases: cell-based
[1] = molecular target: T1, human NHE3 (Homo sapiens, UniProt P48764); assay: Improved version of measurements of NHE3 inhibitory activities (OK26 ND cell lines); conditions: OK26 ND cell lines (opNHE1 expression reduced by 90%), measurement time 8 minutes at 26° C.; read-out: hNHE3 IC50
T1 construct: expressed in transfected cells; host or cells: OK26 cells (opossum kidney OK cells); OK26 ND sublines with opNHE1 reduced by 90% for A3
T1 sequence (P48764 26-834): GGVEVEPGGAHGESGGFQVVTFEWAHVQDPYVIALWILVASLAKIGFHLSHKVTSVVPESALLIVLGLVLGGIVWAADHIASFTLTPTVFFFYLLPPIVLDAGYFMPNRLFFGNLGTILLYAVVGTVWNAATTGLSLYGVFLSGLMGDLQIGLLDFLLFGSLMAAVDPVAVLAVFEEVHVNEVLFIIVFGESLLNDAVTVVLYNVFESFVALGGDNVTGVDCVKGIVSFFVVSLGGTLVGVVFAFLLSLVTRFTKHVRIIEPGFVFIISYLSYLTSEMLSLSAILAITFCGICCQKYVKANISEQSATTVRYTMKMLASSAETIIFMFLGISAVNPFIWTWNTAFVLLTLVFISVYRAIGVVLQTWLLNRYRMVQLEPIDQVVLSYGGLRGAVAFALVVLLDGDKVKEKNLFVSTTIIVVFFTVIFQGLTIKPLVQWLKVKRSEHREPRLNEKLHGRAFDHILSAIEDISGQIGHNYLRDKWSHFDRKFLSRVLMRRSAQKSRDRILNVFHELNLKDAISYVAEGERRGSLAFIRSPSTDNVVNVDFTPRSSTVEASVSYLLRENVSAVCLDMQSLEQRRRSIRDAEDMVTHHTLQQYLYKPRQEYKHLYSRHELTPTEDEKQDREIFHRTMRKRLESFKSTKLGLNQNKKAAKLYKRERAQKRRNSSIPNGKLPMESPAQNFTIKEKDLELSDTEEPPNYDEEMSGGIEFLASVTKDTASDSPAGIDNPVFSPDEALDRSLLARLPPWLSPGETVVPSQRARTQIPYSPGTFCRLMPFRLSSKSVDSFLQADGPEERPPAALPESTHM
Procedure: Pharmacological Test Example 3: Improved Version of Measurements of NHE3 Inhibitory Activities
OK26 cells express endogeneous NHE1 (opNHE1). In order to evaluate NHE3 inhibitory activities more precisely, OK26 ND cell lines in which the expression level of opNHE1 is reduced by 90% were established. Measurements of NEE inhibitory activities were carried out by using the established cell lines in the same manner as described in Pharmacological Test Example 1 except that the measurement time was 8 minutes (at 26° C.) to calculate more precise NHE3 inhibitory activities.

[2] = molecular target: T1, human NHE3; assay: Measurements of NHE3 inhibitory activities (OK26 cells); conditions: OK26 cells (opossum kidney cells overexpressing human NHE3), measurement time 5 minutes at 37° C.; read-out: hNHE3 IC50
Procedure: (§1) HLF cells (Human hepatoma cell line) were used as cells for the test. After 1×10^4 cells/well were seeded to a 96-well plate and cultured for 3 days, they were cultured overnight under a serum-free medium. Then, the cells were incubated in a stain solution of Tetramethylammonium (TMA) Buffer (130 mM TMA-C1, 5 mM KCl, 2 mM CaCl2, 1 mM MgSO2, 25 mM glucose, 20 mM HEPES; pH 7.4) containing 40 mM NH4Cl and 1 μg/mL pH-sensitive fluorescent indicator BCECF-AM at 37° C. for 40 minutes and then BCECF was introduced into the cells. After the cells were washed once with TMA Buffer and incubated in TMA+40 mM NH4Cl solution at 37° C. for 15 minutes, the solution was removed and 20 μL/well of TMA Buffer and 10 μL/well of each test compound solution prepared with TMA Buffer were added to each well. The measurements were carried out by adding 200 μL/well of Na Buffer (130 mM, NaCl, 5 mM KCl, 2 mM CaCl2, 1 mM MgSO2, 1 mM NaH2PO4, 25 mM glucose, 20 mM HEPES; pH 7.4) or TMA Buffer (for base measurement), immediately placing it on FlexStation (Molecular Device) and then, after 10 minutes, measuring, it the two wavelengths of 505 nm (excitation wavelength)/530 nm (emission wavelength) (measurement value) and 440 nm (excitation wavelength)/530 nm (emission wavelength) (isosbestic point value). A NHE activity was calculated by dividing a measurement value by an isosbestic point value and a NHE1 inhibitory activity was calculated by the following equation. NHE1 inhibitory activity (%)=100×(1−(Measurement value [addition of each compound]−Base [addition of TMA Buffer])/(Control [addition of Na Buffer]−Base [addition of TMA Buffer]))
Pharmacological Test Example 2: Measurements of NHE3 Inhibitory Activities.
OK26 cells (OK (opossum kidney) cells in which human NHE3 genes are overexpressed) were used as cells for the test. The measurements were carried out in the same manner as described in Pharmacological Test Example 1 except that the measurement time was 5 minutes (at 37° C.) to calculate NHE3 inhibitory activities.

[3] = molecular target: T2, NHE1 (Homo sapiens, UniProt P19634); assay: Measurements of NHE1 inhibitory activities (HLF cells, BCECF pH recovery); conditions: HLF cells (human hepatoma cell line), measured after 10 minutes; read-out: hNHE1 IC50
T2 construct: HLF cells (Human hepatoma cell line) were used as cells for the test; endogenous in cells; host or cells: HLF cells (human hepatoma cell line)
Procedure: Pharmacological Test Example 1: Measurements of NHE1 Inhibitory Activities
as §1

T2 sequence (P19634 whole entry): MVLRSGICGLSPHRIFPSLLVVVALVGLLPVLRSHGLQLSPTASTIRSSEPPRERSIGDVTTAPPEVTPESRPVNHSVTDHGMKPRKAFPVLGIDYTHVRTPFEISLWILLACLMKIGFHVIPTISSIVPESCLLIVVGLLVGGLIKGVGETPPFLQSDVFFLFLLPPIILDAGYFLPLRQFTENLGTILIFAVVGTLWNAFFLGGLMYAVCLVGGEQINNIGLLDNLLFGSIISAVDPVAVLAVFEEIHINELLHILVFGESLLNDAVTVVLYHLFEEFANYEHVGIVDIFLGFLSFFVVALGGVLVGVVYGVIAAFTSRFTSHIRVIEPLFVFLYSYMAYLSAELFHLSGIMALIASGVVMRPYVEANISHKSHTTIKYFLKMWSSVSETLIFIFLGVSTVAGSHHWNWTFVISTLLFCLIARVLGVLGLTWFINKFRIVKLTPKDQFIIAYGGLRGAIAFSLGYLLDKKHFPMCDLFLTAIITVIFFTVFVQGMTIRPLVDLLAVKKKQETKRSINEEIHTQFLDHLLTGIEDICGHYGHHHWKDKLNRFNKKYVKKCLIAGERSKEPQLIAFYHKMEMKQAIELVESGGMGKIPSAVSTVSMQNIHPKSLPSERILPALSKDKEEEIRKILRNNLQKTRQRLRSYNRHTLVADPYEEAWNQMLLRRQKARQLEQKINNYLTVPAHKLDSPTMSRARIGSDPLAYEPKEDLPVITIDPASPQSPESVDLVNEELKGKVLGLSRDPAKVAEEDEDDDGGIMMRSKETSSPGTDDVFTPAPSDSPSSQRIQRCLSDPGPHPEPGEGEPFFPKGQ

Structure (SMILES) | IC50 [1] | IC50 [2] | IC50 [3]
C/C(=C\c1ccccc1-c1ccc(B(O)O)cc1)C(=O)NC(=N)N [Example 11, N-[(E)-3-(4′-boronic acid-biphenyl-2-yl)-2-methyl-acryloyl]guanidine] | 0.1 µM | 0.23 µM | 1.2 µM
C/C(=C\c1ccccc1-c1ccc(O)c(F)c1)C(=O)NC(=N)N [Example 24, N-[(E)-3-(3′-fluoro-4′-hydroxy-biphenyl-2-yl)-2-methyl-acryloyl]-guanidine] | 0.21 µM | 0.47 µM | 1.2 µM
C/C(=C\c1ccccc1-c1cc(C)c(O)c(C)c1)C(=O)NC(=N)N [Example 22, N-[(E)-3-(3′,5′-dimethyl-4′-hydroxy-biphenyl-2-yl)-2-methyl-acryloyl]-guanidine] | 0.23 µM | 0.23 µM | 3.1 µM
C/C(=C\c1ccc(C)cc1-c1ccc(O)cc1)C(=O)NC(=N)N [Example 47, N-[(E)-3-(4′-hydroxy-5-methyl-biphenyl-2-yl)-2-methyl-acryloyl]-guanidine] | 0.06 µM | 0.19 µM | 1.6 µM
C/C(=C\c1ccccc1-c1ccc(O)cc1)C(=O)NC(=N)N [Example 2, N-[(E)-3-(4′-hydroxy-biphenyl-2-yl)-2-methyl-acryloyl]-guanidine] | 0.083 µM | 0.11 µM | –
C/C(=C\c1ccccc1-c1ccc(C(=O)O)cc1)C(=O)NC(=N)N [Example 10, (E)-2′-(3-guanidino-2-methyl-3-oxo-propenyl)-biphenyl-4-carboxylic acid] | – | 1.6 µM | –
C/C(=C\c1ccc(C)cc1-c1cccc(O)c1)C(=O)NC(=N)N [Example 37, N-[(E)-3-(3′-hydroxy-5-methyl-biphenyl-2-yl)-2-methyl-acryloyl]-guanidine] | 0.038 µM | 0.18 µM | 1.6 µM
C/C(=C\c1ccccc1-c1cccc(O)c1)C(=O)NC(=N)N [Example 13, N-[(E)-3-(3′-hydroxy-biphenyl-2-yl)-2-methyl-acryloyl]guanidine] | 0.11 µM | 0.21 µM | –
C/C(=C\c1ccc(-c2ccc(O)cc2)cc1-c1ccc(O)cc1)C(=O)NC(=N)N [Example 72, N-[(E)-3-(2,4-di(4-hydroxyphenyl)-phenyl)-2-methyl-acryloyl]-guanidine] | 0.087 µM | – | 1.1 µM
C/C(=C\c1ccccc1-c1ccc(C(=N)N)cc1)C(=O)NC(=N)N [Example 56, (E)-2′-(3-guanidino-2-methyl-3-oxo-propenyl)-biphenyl-4-carboxamidine] | 0.4 µM | – | 3.4 µM
C/C(=C\c1cc(O)c(O)cc1-c1cccc(O)c1)C(=O)NC(=N)N [Example 36, N-[(E)-2-methyl-3-(4,5,3′-trihydroxy-biphenyl-2-yl)-acryloyl]-guanidine] | 0.23 µM | 0.32 µM | –
C/C(=C\c1ccccc1-c1ccc(C(=N)N)cc1C)C(=O)NC(=N)N [Example 57, (E)-2′-(3-guanidino-2-methyl-3-oxo-propenyl)-2-methyl-biphenyl-4-carboxamidine] | 0.1 µM | – | 1.1 µM
COc1cc(-c2ccccc2/C=C(\C)C(=O)NC(=N)N)ccc1O [Example 23, N-[(E)-3-(4′-hydroxy-3′-methoxy-biphenyl-2-yl)-2-methyl-acryloyl]guanidine] | 0.61 µM | – | 2.6 µM

Further lines, results first:

IC50 [1] | IC50 [2] | IC50 [3] | Structure (SMILES)
– | 0.86 µM | – | C/C(=C\c1ccc(-c2ccc(F)c(O)c2)cc1)C(=O)NC(=N)N [Example 89, N-[(E)-3-(4′-fluoro-3′-hydroxy-biphenyl-4-yl)-2-methyl-acryloyl]-guanidine]
– | 0.23 µM | – | C/C(=C\c1ccc(-c2ccc(O)cc2C)cc1)C(=O)NC(=N)N [Example 86, N-[(E)-3-(4′-hydroxy-2′-methyl-biphenyl-4-yl)-2-methyl-acryloyl]-guanidine]
0.35 µM | – | 6.6 µM | C/C(=C\c1c(F)cccc1-c1ccc(O)cc1)C(=O)NC(=N)N [Example 82, N-[(E)-3-(3-fluoro-4′-hydroxy-biphenyl-2-yl)-2-methyl-acryloyl]-guanidine]
– | 0.48 µM | – | C/C(=C\c1ccc(-c2ccccc2O)cc1)C(=O)NC(=N)N [Example 88, N-[3-(2′-hydroxy-biphenyl-4-yl)-2-methyl-acryloyl]-guanidine]
0.63 µM | – | 5.2 µM | C/C(=C\c1ccc(C(F)(F)F)cc1-c1ccc(O)cc1)C(=O)NC(=N)N [Example 81, N-[(E)-3-(4′-hydroxy-5-trifluoromethyl-biphenyl-2-yl)-2-methyl-acryloyl]-guanidine]
0.2 µM | – | 1.4 µM | COc1ccc(-c2cc(C)ccc2/C=C(\C)C(=O)NC(=N)N)cc1O [Example 74, N-[(E)-3-(3′-hydroxy-4′-methoxy-5-methyl-biphenyl-2-yl)-2-methyl-acryloyl]-guanidine]
0.7 µM | – | 5.2 µM | C/C(=C\c1ccc(C)cc1-c1ccc(C(=N)N)c(F)c1)C(=O)NC(=N)N [Example 79, (E)-3-fluoro-2′-(3-guanidino-2-methyl-3-oxo-propenyl)-5′-methyl-biphenyl-4-carboxamidine]
0.54 µM | – | 2.2 µM | C/C(=C\c1ccccc1-c1cscc1C)C(=O)NC(=N)N [Example 83, N-{(E)-2-methyl-3-[2-(4-methyl-thiophene-3-yl)-phenyl]-acryloyl}-guanidine]
0.15 µM | – | 3.3 µM | COc1cc(-c2ccc(/C=C(\C)C(=O)NC(=N)N)c(-c3ccc(O)c(OC)c3)c2)ccc1O [Example 78, N-[(E)-3-(2,4-di(3-methoxy-4-hydroxyphenyl)-phenyl)-2-methyl-acryloyl]-guanidine]
– | 0.27 µM | – | C/C(=C\c1ccc(-c2cccc(O)c2)cc1)C(=O)NC(=N)N [Example 87, N-[(E)-3-(3′-hydroxy-biphenyl-4-yl)-2-methyl-acryloyl]-guanidine]
0.061 µM | – | 0.94 µM | C/C(=C\c1ccc(-c2cccc(O)c2)cc1-c1cccc(O)c1)C(=O)NC(=N)N [Example 77, N-[(E)-3-(2,4-di(3-hydroxyphenyl)-phenyl)-2-methyl-acryloyl]-guanidine]
0.4 µM | – | 1.1 µM | C/C(=C\c1ccc(-c2ccc(F)c(O)c2)cc1-c1ccc(F)c(O)c1)C(=O)NC(=N)N [Example 76, N-[(E)-3-(2,4-di(3-hydroxy-4-fluorophenyl)-phenyl)-2-methyl-acryloyl]-guanidine]
0.18 µM | – | 2.1 µM | C/C(=C\c1ccccc1-c1cc[nH]c1)C(=O)NC(=N)N [Example 84, N-{(E)-2-methyl-3-[2-(1H-pyrrole-3-yl)-phenyl]-acryloyl}-guanidine]
